# Measured values as given in PubChem BioAssay (NCI).
#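 Exposure lasted 48 hours, with cells grown in 96-well plates and compounds tested at five concentrations. GI50 marks 50% less growth. TGI: total growth inhibition.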
# Assays:
# Assay in all cases: DTP human tumour cell line panel, 48 h
# [1] = test system: 786-0 renal
# [2] = test system: A498 renal
# [3] = test system: A549 NSCLC
# [4] = test system: ACHN renal
# [5] = test system: BT-549 breast
# [6] = test system: CAKI-1 renal
# [7] = test system: CCRF-CEM leukemia
# [8] = test system: COLO 205 colon
# [9] = test system: DU-145 prostate
# [10] = test system: EKVX NSCLC
# [11] = test system: HCC-2998 colon
# [12] = test system: HCT-116 colon
# [13] = test system: HCT-15 colon
# [14] = test system: HOP-62 NSCLC
# [15] = test system: HS 578T breast
# [16] = test system: HT29 colon
# [17] = test system: K-562 leukemia
# [18] = test system: KM12 colon
# [19] = test system: LOX IMVI melanoma
# [20] = test system: M14 melanoma
# [21] = test system: MALME-3M melanoma
# [22] = test system: MCF7 breast
# [23] = test system: MDA-MB-231 breast
# [24] = test system: MDA-MB-435
# [25] = test system: MOLT-4 leukemia
# [26] = test system: NCI-H226 lung
# [27] = test system: NCI-H23 lung
# [28] = test system: NCI-H460 lung
# [29] = test system: NCI/ADR-RES ovarian
# [30] = test system: OVCAR-3 ovarian
# [31] = test system: OVCAR-4 ovarian
# [32] = test system: OVCAR-5 ovarian
# [33] = test system: OVCAR-8 ovarian
# [34] = test system: PC-3 prostate
# [35] = test system: RPMI-8226 leukemia
# [36] = test system: RXF 393 renal
# [37] = test system: SF-268 CNS
# [38] = test system: SF-295 CNS
# [39] = test system: SF-539 CNS
# [40] = test system: SK-MEL-2 melanoma
# [41] = test system: SK-MEL-28 melanoma
# [42] = test system: SK-OV-3 ovarian
# [43] = test system: SN12C renal
# [44] = test system: SNB-19 CNS
# [45] = test system: SNB-75 CNS
# [46] = test system: SW-620 colon
# [47] = test system: T-47D breast
# [48] = test system: U251 CNS
# [49] = test system: UACC-257 melanoma
# [50] = test system: UACC-62 melanoma
# [51] = test system: UO-31 renal
# [52] = test system: HL-60(TB) leukemia
# [53] = test system: HOP-92 NSCLC
# [54] = test system: NCI-H522 lung
# [55] = test system: TK-10 renal
# [56] = test system: SK-MEL-5 melanoma
smiles,measurement,setting,value
O=c1[nH]nc(Cc2ccccc2)n1/N=C/c1ccco1,TGI,[1],> 100 µM
same,TGI,[2],> 100 µM
same,TGI,[3],> 100 µM
same,TGI,[4],> 100 µM
same,TGI,[5],> 100 µM
same,TGI,[6],> 100 µM
same,TGI,[7],> 100 µM
same,TGI,[8],> 100 µM
same,TGI,[9],> 100 µM
same,TGI,[10],> 100 µM
same,TGI,[11],> 100 µM
same,TGI,[12],> 100 µM
same,TGI,[13],> 100 µM
same,TGI,[14],> 100 µM
same,TGI,[15],> 100 µM
same,TGI,[16],> 100 µM
same,TGI,[17],> 100 µM
same,TGI,[18],> 100 µM
same,TGI,[19],> 100 µM
same,TGI,[20],> 100 µM
same,TGI,[21],> 100 µM
same,TGI,[22],> 100 µM
same,TGI,[23],> 100 µM
same,TGI,[24],> 100 µM
same,TGI,[25],> 100 µM
same,TGI,[26],> 100 µM
same,TGI,[27],> 100 µM
same,TGI,[28],> 100 µM
same,TGI,[29],> 100 µM
same,TGI,[30],> 100 µM
same,TGI,[31],> 100 µM
same,TGI,[32],> 100 µM
same,TGI,[33],> 100 µM
same,TGI,[34],> 100 µM
same,TGI,[35],> 100 µM
same,TGI,[36],> 100 µM
same,TGI,[37],> 100 µM
same,TGI,[38],> 100 µM
same,TGI,[39],> 100 µM
same,TGI,[40],> 100 µM
same,TGI,[41],> 100 µM
same,TGI,[42],> 100 µM
same,TGI,[43],> 100 µM
same,TGI,[44],> 100 µM
same,TGI,[45],> 100 µM
same,TGI,[46],> 100 µM
same,TGI,[47],> 100 µM
same,TGI,[48],> 100 µM
same,TGI,[49],> 100 µM
same,TGI,[50],> 100 µM
same,TGI,[51],> 100 µM
CC(=O)/C=C/c1ccc(Nc2c3ccccc3nc3occ(Cl)c23)cc1,GI50,[1],3.17 µM
same,TGI,[1],17.2 µM
same,GI50,[3],4.04 µM
same,TGI,[3],32.5 µM
same,GI50,[4],3.32 µM
same,TGI,[4],12.5 µM
same,GI50,[5],4.9 µM
same,TGI,[5],22.7 µM
same,GI50,[6],0.159 µM
same,TGI,[6],1.07 µM
same,GI50,[7],2.96 µM
same,TGI,[7],19.7 µM
same,GI50,[8],4.46 µM
same,TGI,[8],19.5 µM
same,GI50,[10],27.2 µM
same,TGI,[10],78.2 µM
same,GI50,[11],2.93 µM
same,TGI,[11],14.6 µM
same,GI50,[12],4.83 µM
same,TGI,[12],17.6 µM
same,GI50,[13],2.09 µM
same,TGI,[13],11.7 µM
same,GI50,[52],3.1 µM
same,TGI,[52],8.56 µM
same,GI50,[14],19.5 µM
same,TGI,[14],61.3 µM
same,GI50,[53],4.51 µM
same,TGI,[53],29.4 µM
same,GI50,[15],5.75 µM
same,TGI,[15],> 100 µM
same,GI50,[16],2.58 µM
same,TGI,[16],> 100 µM
same,GI50,[17],2.45 µM
same,TGI,[17],13.3 µM
same,GI50,[18],> 100 µM
same,TGI,[18],> 100 µM
same,GI50,[20],4.49 µM
same,TGI,[20],18.2 µM
same,GI50,[21],6.48 µM
same,TGI,[21],24.9 µM
same,GI50,[22],1.07 µM
same,TGI,[22],14.3 µM
same,GI50,[23],2.63 µM
same,TGI,[23],9.06 µM
same,GI50,[24],2.03 µM
same,TGI,[24],5.95 µM
same,GI50,[25],2.69 µM
same,TGI,[25],13.3 µM
same,GI50,[26],4.87 µM
same,TGI,[26],21.7 µM
same,GI50,[27],3.1 µM
same,TGI,[27],13.2 µM
same,GI50,[28],2.96 µM
same,TGI,[28],14.6 µM
same,GI50,[54],3.43 µM
same,TGI,[54],16.1 µM
same,GI50,[29],2.56 µM
same,TGI,[29],5.88 µM
same,GI50,[31],4.35 µM
same,TGI,[31],30.2 µM
same,GI50,[32],13.9 µM
same,TGI,[32],30.7 µM
same,GI50,[33],2.03 µM
same,TGI,[33],4.64 µM
same,GI50,[34],2.63 µM
same,TGI,[34],18.8 µM
same,GI50,[36],0.497 µM
same,TGI,[36],7.15 µM
same,GI50,[37],3.16 µM
same,TGI,[37],17.5 µM
same,GI50,[39],4.52 µM
same,TGI,[39],22.9 µM
same,GI50,[40],42.6 µM
same,TGI,[40],> 100 µM
same,GI50,[41],15.1 µM
same,TGI,[41],> 100 µM
same,GI50,[42],8.21 µM
same,TGI,[42],65.6 µM
same,GI50,[43],3.29 µM
same,TGI,[43],14.3 µM
same,GI50,[44],8.71 µM
same,TGI,[44],30.2 µM
same,GI50,[45],18.3 µM
same,TGI,[45],59.4 µM
same,GI50,[47],4.82 µM
same,TGI,[47],76.3 µM
same,GI50,[55],3.87 µM
same,TGI,[55],24.8 µM
same,GI50,[48],2.33 µM
same,TGI,[48],6.83 µM
same,GI50,[49],1.24 µM
same,TGI,[49],5.59 µM
same,GI50,[50],1.66 µM
same,TGI,[50],7.03 µM
same,GI50,[51],14.2 µM
same,TGI,[51],> 100 µM
CN(C)CCCOc1cccc(NC2=C(Cl)C(=O)C(Nc3cccc(OCCCN(C)C)c3)=C(Cl)C2=O)c1,GI50,[1],0.763 µM
same,TGI,[1],2.09 µM
same,GI50,[2],1.59 µM
same,TGI,[2],3.01 µM
same,GI50,[3],1.9 µM
same,TGI,[3],3.5 µM
same,GI50,[4],1.78 µM
same,TGI,[4],3.16 µM
same,GI50,[5],1.57 µM
same,TGI,[5],2.93 µM
same,GI50,[6],1.45 µM
same,TGI,[6],2.76 µM
same,GI50,[7],0.402 µM
same,TGI,[7],3.26 µM
same,GI50,[8],1.56 µM
same,TGI,[8],3.34 µM
same,GI50,[9],0.765 µM
same,TGI,[9],2 µM
same,GI50,[10],1.19 µM
same,TGI,[10],2.54 µM
same,GI50,[11],1.34 µM
same,TGI,[11],2.81 µM
same,GI50,[12],0.286 µM
same,TGI,[12],0.804 µM
same,GI50,[13],0.911 µM
same,TGI,[13],2.45 µM
same,GI50,[14],1.93 µM
same,TGI,[14],3.68 µM
same,GI50,[53],0.58 µM
same,TGI,[53],1.28 µM
same,GI50,[15],2.11 µM
same,TGI,[15],5.4 µM
same,GI50,[16],0.56 µM
same,TGI,[16],1.59 µM
same,GI50,[17],0.307 µM
same,TGI,[17],1.42 µM
same,GI50,[18],1.32 µM
same,TGI,[18],2.73 µM
same,GI50,[19],0.175 µM
same,TGI,[19],0.346 µM
same,GI50,[20],1.33 µM
same,TGI,[20],2.74 µM
same,GI50,[21],0.592 µM
same,TGI,[21],1.36 µM
same,GI50,[22],0.184 µM
same,TGI,[22],0.408 µM
same,GI50,[23],0.655 µM
same,TGI,[23],1.6 µM
same,GI50,[24],1.04 µM
same,TGI,[24],2.44 µM
same,GI50,[25],0.515 µM
same,TGI,[25],1.59 µM
same,GI50,[26],5.85 µM
same,TGI,[26],14.1 µM
same,GI50,[27],1.13 µM
same,TGI,[27],2.79 µM
same,GI50,[28],1.8 µM
same,TGI,[28],3.48 µM
same,GI50,[54],0.172 µM
same,TGI,[54],0.437 µM
same,GI50,[29],2.62 µM
same,TGI,[29],9.69 µM
same,GI50,[30],0.188 µM
same,TGI,[30],0.355 µM
same,GI50,[31],0.216 µM
same,TGI,[31],0.592 µM
same,GI50,[32],1.83 µM
same,TGI,[32],3.43 µM
same,GI50,[33],1.57 µM
same,TGI,[33],3.44 µM
same,GI50,[34],1.57 µM
same,TGI,[34],3.29 µM
same,GI50,[35],1.25 µM
same,TGI,[35],4.54 µM
same,GI50,[36],0.885 µM
same,TGI,[36],2.22 µM
same,GI50,[37],1.7 µM
same,TGI,[37],3.47 µM
same,GI50,[38],1.73 µM
same,TGI,[38],3.18 µM
same,GI50,[39],1.8 µM
same,TGI,[39],3.22 µM
same,GI50,[40],1.53 µM
same,TGI,[40],3.2 µM
same,GI50,[41],1.71 µM
same,TGI,[41],3.16 µM
same,GI50,[56],1 µM
same,TGI,[56],2.37 µM
same,GI50,[42],5.45 µM
same,TGI,[42],18.3 µM
same,GI50,[43],0.345 µM
same,TGI,[43],0.865 µM
same,GI50,[44],1.78 µM
same,TGI,[44],3.32 µM
same,GI50,[45],1.68 µM
same,TGI,[45],3.6 µM
same,GI50,[46],0.276 µM
same,TGI,[46],0.766 µM
same,GI50,[47],0.243 µM
same,TGI,[47],0.779 µM
same,GI50,[55],0.831 µM
same,TGI,[55],2.12 µM
same,GI50,[48],1.57 µM
same,TGI,[48],2.97 µM
same,GI50,[49],0.941 µM
same,TGI,[49],2.28 µM
same,GI50,[50],1.5 µM
same,TGI,[50],2.95 µM
same,GI50,[51],1.45 µM
same,TGI,[51],2.76 µM
